Measured values reported in patent US20090137616A1, “METHOD FOR THE CONTROL OF PHYTOPATHOGENIC FUNGI” (Syngenta Crop Protection, Inc., priority 2004, published 2009).

Assays:
[1] = tested on: Pythium; test: Sensitivity of Pythium isolates to phenylamide and strobilurin fungicides (summary); format: cell-based; conditions: isolates from several species of Pythium that are insensitive to mefenoxam
Protocol: Plant and soil samples were collected from fields where plant stand establishment issues appeared to be increasing when using standard mefenoxam or metalaxyl seed treatment fungicide programs. Fungal pathogens were isolated from the plant and soil material. Pythium species were identified and studies were conducted to determine the sensitivity of these fungal pathogens to phenylamide and strobilurin fungicides. It can be seen that isolates from several species of Pythium that are insensitive to mefenoxam are sensitive to azoxystrobin or trifloxystrobin.

[2] = tested on: P. ultimum; test: Greenhouse seed treatment efficacy, Pioneer hybrid 34M95 seeds in Pythium-infested soil; format: in vivo; conditions: vs uninoculated seeds
Description: Seeds of the Pioneer hybrid 34M95 were untreated and treated with mefenoxam, azoxystrobin or trifloxystrobin at the rates described in Table 3. To test the efficacy of the seed treatment fungicides pasteurized soil was infested with each isolate of Pythium at a rate of 7.8% (volume of inoculum/volume of soil). All these studies were done under greenhouse conditions, and data presented as a comparison against uninoculated seeds.

[3] = P. ultimum 03-047, seed treatment 5 g a.i/100 KgSeeds
[4] = P. ultimum 03-795, seed treatment 5 g a.i/100 KgSeeds
[5] = P. ultimum 03-047, seed treatment 1 g a.i/100 KgSeeds
[6] = P. ultimum 03-795, seed treatment 1 g a.i/100 KgSeeds
[7] = P. ultimum 03-047, seed treatment 2 g a.i/100 KgSeeds
[8] = P. ultimum 03-795, seed treatment 2 g a.i/100 KgSeeds

CON=C(C(=O)OC)c1ccccc1CON=C(C)c1cccc(C(F)(F)F)c1 [Trifloxystrobin, trifloxystrobin]
sensitivity of mefenoxam-insensitive Pythium isolates [1]: sensitive
% fresh weight reduction [2, 3]: 0.0%
% stand reduction [2, 3]: 0.0%
% fresh weight reduction [2, 4]: 24.1%
% stand reduction [2, 4]: 6.7%

CO/C=C(/C(=O)OC)c1ccccc1Oc1cc(Oc2ccccc2C#N)ncn1 [Azoxystrobin, azoxystrobin]
sensitivity of mefenoxam-insensitive Pythium isolates [1]: sensitive
% fresh weight reduction [2, 5]: 7.9%
% stand reduction [2, 5]: 0.0%
% fresh weight reduction [2, 6]: 24.7%
% stand reduction [2, 6]: 6.7%

COCC(=O)N(c1c(C)cccc1C)[C@H](C)C(=O)OC [Mefenoxam, mefenoxam]
% fresh weight reduction [2, 7]: 5.2%
% stand reduction [2, 7]: 6.7%
% fresh weight reduction [2, 8]: 15.3%
% stand reduction [2, 8]: 6.7%
